Where “and” joins values, the source holds several entries; their conditions need not be identical. Equal values may be shown once. Bridge positions count the residues as written; N and C are the ends. Peptide text beside a SMILES is read from it. I, II: the chains in the order shown.
Experiments:
human δ opioid receptor = target: T1, human δ opioid receptor (Homo sapiens, UniProt P41143); test: Calcium mobilization assay, CHO cells with δ receptor and chimeric G protein; assay type: cell-based; settings: CHO cells coexpressing human δ receptor and GαqG66Di5; 5 experiments in duplicate; read-out: calcium mobilization at δ receptor, concentration up to which inactive
T1 construct: expressed in transfected cells
T1 sequence (P41143 whole entry): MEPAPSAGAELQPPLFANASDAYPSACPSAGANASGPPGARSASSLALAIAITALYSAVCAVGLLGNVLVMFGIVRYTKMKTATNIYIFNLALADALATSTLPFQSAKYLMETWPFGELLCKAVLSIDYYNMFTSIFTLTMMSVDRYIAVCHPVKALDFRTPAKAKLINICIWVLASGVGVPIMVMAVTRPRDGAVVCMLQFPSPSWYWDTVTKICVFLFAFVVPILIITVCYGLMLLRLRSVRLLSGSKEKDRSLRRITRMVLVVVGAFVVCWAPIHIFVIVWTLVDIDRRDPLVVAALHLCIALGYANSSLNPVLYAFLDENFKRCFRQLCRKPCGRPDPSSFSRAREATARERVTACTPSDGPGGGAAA
Procedure: (§1) Chinese hamster ovary (CHO) cells stably coexpressing the human NOP, μ, or κ opioid receptors and the Gαqi5 protein or the human δ and the GαqG66Di5 protein were used in this assay. , Cells were cultured in DMEM/F-12 (1:1) medium supplemented with 10% FBS, 2 mM L-glutamine, […], 100 IU/mL penicillin, and 100 IU/mL streptomycin. Cells were maintained at 37 °C in a humidified atmosphere with 5% CO2 and were seeded at 50 000 cells/well into 96-well black, clear-bottom plates 24 h before test. Loading for 45 min with a solution consisting of HBSS supplemented with 2.5 mM probenecid, 3 μM Fluo-4 AM, and 0.01% pluronic acid ensures the calcium-sensitive dye (Fluo-4) reaches the needed concentration inside the cell, while the exchange of the solution with 100 μL/well of buffer consisting of HBSS with 20 mM HEPES, 2.5 mM probenecid, and 500 μM Brilliant Black allows for fluorescence background to decrease. Serial dilutions of ligands were prepared in HBSS buffer with 20 mM HEPES and 0.02% bovine serum albumin (BSA) to minimize the ligands’ stickiness to plasticware. The automated microplate reader FlexStation II (Molecular Devices, CA, US) was employed at 37 °C to detect changes in fluorescence intensity. The effects of all compounds were expressed as the maximum change in percentage over the baseline fluorescence measured in samples treated with vehicles. […]

human κ opioid receptor = target: T2, human κ opioid receptor (Homo sapiens, UniProt P41145); test: Calcium mobilization assay, CHO cells with κ receptor and chimeric G protein; assay type: cell-based; settings: CHO cells coexpressing human κ receptor and Gαqi5; 5 experiments in duplicate; read-out: calcium mobilization at κ receptor, concentration up to which inactive
T2 construct: expressed in transfected cells
T2 sequence (P41145 whole entry): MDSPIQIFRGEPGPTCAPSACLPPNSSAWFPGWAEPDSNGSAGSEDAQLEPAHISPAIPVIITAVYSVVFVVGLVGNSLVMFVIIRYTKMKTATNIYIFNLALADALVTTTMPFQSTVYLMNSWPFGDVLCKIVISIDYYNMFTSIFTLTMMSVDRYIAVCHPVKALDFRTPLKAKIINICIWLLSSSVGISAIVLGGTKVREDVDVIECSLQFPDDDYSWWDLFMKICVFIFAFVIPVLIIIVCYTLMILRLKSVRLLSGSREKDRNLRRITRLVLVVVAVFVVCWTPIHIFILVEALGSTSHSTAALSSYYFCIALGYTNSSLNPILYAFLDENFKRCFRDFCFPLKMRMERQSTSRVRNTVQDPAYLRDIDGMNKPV
Procedure: as §1

[1] = system: mouse vas deferens from NOP(+/+) mice; test: Electrically stimulated mouse vas deferens bioassay, NOP(+/+) tissues
Procedure: This study was approved by the Animal Welfare Body of the University of Ferrara and by the Italian Ministry of Health (authorization number CBCC2.N.BXI). Experiments were performed on an isolated mouse vas deferens. All experiments were conducted with mice bred and housed in the University of Ferrara’s animal facility under specific pathogen-free conditions (SPF). All mice were housed in cages with individual ventilation, with a constant temperature of 21 °C, 60% humidity, and a 12 h light/dark cycle. Food and water were provided ad libitum. CD-1 NOP(+/+) and CD-1 NOP(−/−) male mice, aged 9 to 12 months, were used. Animals were sacrificed on the day of the experiment with CO2 overdose. Bioassay experiments were performed as previously described. The tissues were suspended in 5 mL organ bath containing Krebs solution (NaCl 118.5 […]). The Krebs solution was oxygenated with 95% O2 and 5% CO2 and the temperature set at 33 °C with a resting tension of 0.3 g applied to the tissues. Tissues were stimulated through two platinum electrodes with a supramaximal rectangular pulse of 1 ms duration, 0.05 Hz frequency, and 80 V of amplitude. The electrically evoked contractions were measured isotonically by means of Basile strain gauge transducers (Basile, IT) and a recorder with a Power Lab 8 instrument (ADInstruments, CO, U.S.). Following an equilibration period of approximately 60 min, the contractions induced by electrical field stimulation were stable. At this time, cumulative concentration response curves were carried out.
(§2) Concentration-response curves to agonists were analyzed by a four-parameter logistic nonlinear regression model: Effect = baseline + (E max – baseline)/(1 + 10^((logEC50–log[ligand])slope)). […] Experimental data were expressed as mean ± sem of at least 5 experiments. Potency values were expressed as the mean and CL95%. In vitro E max values were analyzed by one-way ANOVA, while in vivo latency data were evaluated by one-way ANOVA followed by Dunnett’s post hoc test. The proportion of mice losing the righting reflex was compared by Fisher’s exact test performed on raw data. GraphPad Prism 10.0 software was used for all of the analyses. The terminology employed is consistent with the International Union of Basic and Clinical Pharmacology (IUPHAR) recommendations. ,

[2] = system: loss of the righting reflex (RR) in mice; test: Loss of the righting reflex assay in mice; assay type: in vivo, mouse; settings: icv
Procedure: All of the experimental procedures adopted in the in vivo studies comply with the European Directive 2010/63/EU on protecting animals used for scientific purposes and Italian Legislative Decree no. 26 of March 4, 2014. These experiments were approved by the Animal Welfare Body of the University of Ferrara and by the Ministry of Health (authorization number 677/2024-PR). In vivo studies have been reported following ARRIVE guidelines. All experiments were conducted with mice bred and housed in the University of Ferrara’s animal facility under specific pathogen-free conditions. All mice were housed in cages with individual ventilation, with a constant temperature of 21 °C, 60% humidity, and a 12 h light/dark cycle. Food and water were provided ad libitum. CD-1 male and female mice, aged 2 to 4 months, were used. Details about the generation of NOP(−/−) and NOP(+/+) mice have been published previously; , these mice have been backcrossed on CD-1 strain in our laboratories. NOP(+/+) and NOP(−/−) littermates were obtained by mating with NOP(±) mice. All mice were genotyped using the polymerase chain reaction previously described. All mice were used only once. The RR assay was performed as previously described. […] Diazepam 15 mg/kg was injected ip. When the animals lost RR, they were placed in a plastic cage, and the time was recorded by an expert observer, blind to drug treatments and/or genotype. Animals were judged to have regained the RR response when they could correct themselves three times within 30 s. Sleeping time is defined as the amount of time between the loss and regaining of the RR; it was rounded to the nearest minute.
as §2

[3] = system: loss of the righting reflex (RR) in NOP(−/−) mice; test: Loss of the righting reflex assay in NOP(−/−) mice; assay type: in vivo, mouse; settings: 10 nmol, icv; N = 7–9 per group
Procedure: All of the experimental procedures adopted in the in vivo studies comply with the European Directive 2010/63/EU on protecting animals used for scientific purposes and Italian Legislative Decree no. 26 of March 4, 2014. These experiments were approved by the Animal Welfare Body of the University of Ferrara and by the Ministry of Health (authorization number 677/2024-PR). In vivo studies have been reported following ARRIVE guidelines. All experiments were conducted with mice bred and housed in the University of Ferrara’s animal facility under specific pathogen-free conditions. All mice were housed in cages with individual ventilation, with a constant temperature of 21 °C, 60% humidity, and a 12 h light/dark cycle. Food and water were provided ad libitum. […] When the animals lost RR, they were placed in a plastic cage, and the time was recorded by an expert observer, blind to drug treatments and/or genotype. […]
Concentration-response curves to agonists were analyzed by a four-parameter logistic nonlinear regression model: Effect = baseline + (E max – baseline)/(1 + 10^((logEC50–log[ligand])slope)). […] Experimental data were expressed as mean ± sem of at least 5 experiments. Potency values were expressed as the mean and CL95%. In vitro E max values were analyzed by one-way ANOVA, while in vivo latency data were evaluated by one-way ANOVA followed by Dunnett’s post hoc test. […]

human NOP = human NOP (Homo sapiens, UniProt P41146); test: Calcium mobilization assay, CHO cells with NOP receptor and chimeric G protein; assay type: cell-based; design: expressed in transfected cells
human NOP, sequence (P41146 whole entry): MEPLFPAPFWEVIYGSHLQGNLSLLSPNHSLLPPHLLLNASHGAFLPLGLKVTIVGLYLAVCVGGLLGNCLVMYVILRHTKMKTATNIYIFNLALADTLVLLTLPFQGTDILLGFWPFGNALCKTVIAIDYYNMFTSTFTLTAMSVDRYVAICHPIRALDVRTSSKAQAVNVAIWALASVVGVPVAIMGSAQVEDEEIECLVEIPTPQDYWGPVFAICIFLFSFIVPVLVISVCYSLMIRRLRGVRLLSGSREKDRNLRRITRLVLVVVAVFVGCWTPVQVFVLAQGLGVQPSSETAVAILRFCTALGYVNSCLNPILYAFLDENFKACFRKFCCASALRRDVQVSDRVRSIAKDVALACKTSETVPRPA
Procedure: Chinese hamster ovary (CHO) cells stably coexpressing the human NOP, μ, or κ opioid receptors and the Gαqi5 protein or the human δ and the GαqG66Di5 protein were used in this assay. , Cells were cultured in DMEM/F-12 (1:1) medium supplemented with 10% FBS, 2 mM L-glutamine, […], 100 IU/mL penicillin, and 100 IU/mL streptomycin. Cells were maintained at 37 °C in a humidified atmosphere with 5% CO2 and were seeded at 50 000 cells/well into 96-well black, clear-bottom plates 24 h before test. Loading for 45 min with a solution consisting of HBSS supplemented with 2.5 mM probenecid, 3 μM Fluo-4 AM, and 0.01% pluronic acid ensures the calcium-sensitive dye (Fluo-4) reaches the needed concentration inside the cell, while the exchange of the solution with 100 μL/well of buffer consisting of HBSS with 20 mM HEPES, 2.5 mM probenecid, and 500 μM Brilliant Black allows for fluorescence background to decrease. Serial dilutions of ligands were prepared in HBSS buffer with 20 mM HEPES and 0.02% bovine serum albumin (BSA) to minimize the ligands’ stickiness to plasticware. The automated microplate reader FlexStation II (Molecular Devices, CA, US) was employed at 37 °C to detect changes in fluorescence intensity. The effects of all compounds were expressed as the maximum change in percentage over the baseline fluorescence measured in samples treated with vehicles.
as §2

C[C@H](NC(=O)CNC(=O)[C@@H](NC(=O)[C@H](Cc1ccccc1)NC(=O)CNC(=O)CNC(=O)[C@@H](N)Cc1ccccc1)[C@@H](C)O)C(=O)N[C@@H](CCCNC(=N)N)C(=O)N[C@@H](CCCCN)C(=O)N[C@@H](CO)C(=O)N[C@@H](C)C(=O)N[C@@H](CCCNC(=N)N)C(=O)N[C@@H](CCCCN)C(=O)N[C@@H](CSSC[C@H](NC(=O)[C@H](CCCCN)NC(=O)[C@H](CCCNC(=N)N)NC(=O)[C@H](C)NC(=O)[C@H](CO)NC(=O)[C@H](CCCCN)NC(=O)[C@H](CCCNC(=N)N)NC(=O)[C@H](C)NC(=O)CNC(=O)[C@@H](NC(=O)[C@H](Cc1ccccc1)NC(=O)CNC(=O)CNC(=O)[C@@H](N)Cc1ccccc1)[C@@H](C)O)C(=O)N[C@@H](C)C(=O)N[C@@H](CC(N)=O)C(=O)N[C@@H](CCC(N)=O)C(N)=O)C(=O)N[C@@H](C)C(=O)N[C@@H](CC(N)=O)C(=O)N[C@@H](CCC(N)=O)C(N)=O [1h, [[Cys^14]N/OFQ-NH2]2] (I: H-FGGFTGARKSARKCANQ-NH2 / II: H-FGGFTGARKSARKCANQ-NH2; disulfide I:14-II:14; N-terminus assumed)
EC50 (human δ opioid receptor): > 1000 nM
EC50 (human κ opioid receptor): > 1000 nM
potency (pEC50) for inhibition of electrically induced contractions ([1]; mVD from CD-1 NOP(+/+) mice, 33 °C, mean (CL95%), 5 experiments): 6.79 (6.02–7.56)
decrease in mVD potency compared to N/OFQ ([1]; mVD, vs N/OFQ): approximately 3 fold
kinetics of action in mVD (in words) ([1]; onset and reversibility upon washout): fully and rapidly reversible upon washout
mice that lost the RR, 3 nmol ([2]; 3 nmol, CD-1 mice, N = 8–10 per group): 75%
mice that lost the RR, 10 nmol ([2]; 10 nmol, CD-1 mice, N = 8–10 per group): all mice
sleep duration (interval between loss and recovery of the RR) ([2]; 3 and 10 nmol, only mice that lost the RR, experimental cutoff 420 min): ≥ 420 min
potency in eliciting loss of the RR relative to N/OFQ ([2]; mice, vs N/OFQ (and N/OFQ-NH2)): 3 fold
duration of the effect on RR ([2]; experimental cutoff 7 h): ≥ 7 h
loss of the RR in NOP(−/−) mice (in words) [3]: completely inactive
EC50 (human NOP; CHO cells coexpressing human NOP and Gαqi5, Fluo-4, 37 °C, mean (CL95%), N = 5 experiments in duplicate, read-out: Ca^2+ mobilization pEC50 (CL95%) (converted)): < 1 nM and 0.724 nM
Ca^2+ mobilization E max ± sem (human NOP; CHO cells coexpressing human NOP and Gαqi5, maximum change in percentage over baseline fluorescence, mean ± sem, N = 5 in duplicate): 241 ± 38 % over the baseline
selectivity for the NOP over classical opioid receptors (human NOP; calcium mobilization, NOP vs μ, δ, κ receptors): more than 1000 fold

— PMC12621184, “Synthesis and Pharmacological Characterization of Nociceptin/Orphanin FQ Dimeric Ligands” (Journal of Medicinal Chemistry, 2025)
